Calls of active or inactive are those of the source. How the calls were made is not given here.
Test system: Mycobacterium tuberculosis log-phase replicating growth inhibition
Assay: growth inhibition of replicating M. tuberculosis, dose response, counter-screen, log phase (AID 651851)
Settings: not given
`O=S(Cc1cn(Cc2ccc(F)cc2)nn1)c1nnc(-c2ccc(Cl)cc2)o1` (stereo not drawn) gave an IC90 of 62 µM.
Compound `O=S(=O)(Cc1ccccc1)c1nnc(-c2ccccc2)o1` has an IC90 of 62 µM.
`O=S(=O)(Cc1cn(Cc2ccccc2)nn1)c1nnc(-c2ccc(Cl)cc2)o1` gave an IC90 of 62 µM.
In the case of `c1ccc(CSc2nnc(-c3ccccc3)o2)cc1`, the IC90 is reported as 250 µM.
With `O=S(Cc1ccccc1)c1nnc(-c2ccccc2)o1` (stereo not drawn) the IC90 was 31 µM.
`O=S(Cc1cn(Cc2ccccc2)nn1)c1nnc(-c2ccc(Cl)cc2)o1` (stereo not drawn) showed an IC90 of 62 µM.

Test system: not listed separately
Assay: as above
Settings: Mycobacterium tuberculosis log-phase replicating growth inhibition
With `Clc1ccc(-c2nnc(SCc3cn(Cc4ccccc4)nn3)o2)cc1` the outcome was “inactive”.
With `Fc1ccc(Cn2cc(CSc3nnc(-c4ccc(Cl)cc4)o3)nn2)cc1` the outcome was “inactive”.
